Six compounds from ChEMBL document CHEMBL5370631, “Emopamil-Binding Protein Inhibitors for Treating Multiple Sclerosis” (ACS Med Chem Lett, 2023) can be followed below.

This experiment deals with 3-beta-hydroxysteroid-Delta(8),Delta(7)-isomerase (Homo sapiens, UniProt Q15125). Nature of the experiment: Inhibition of human EBP isolated from HEK293T cells assessed as reduction in dihydrolathosterol-d5 formation using zymosterol-d5 as substrate pre incubated for 30 mins followed by substrate addition and incubated at 37 degC for 4 hrs by LC-APCI MRM MS analysis. The format is cell-free, HEK-293T.
3-beta-hydroxysteroid-Delta(8),Delta(7)-isomerase, sequence (Q15125 whole entry): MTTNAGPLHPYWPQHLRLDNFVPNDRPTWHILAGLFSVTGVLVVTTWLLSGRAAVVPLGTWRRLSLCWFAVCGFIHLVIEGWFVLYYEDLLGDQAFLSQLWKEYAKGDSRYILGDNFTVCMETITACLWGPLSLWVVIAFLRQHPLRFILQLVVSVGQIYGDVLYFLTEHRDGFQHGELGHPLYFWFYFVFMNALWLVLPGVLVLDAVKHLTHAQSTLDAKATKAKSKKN
Take `CC1CCN([C@H]2C[C@H]3CC[C@@H](C2)N3S(=O)(=O)c2ccc(OC(F)F)cc2)CC1`: the half-inhibitory concentration (IC50) was less than 50 nM.
With `Cc1cc(S(=O)(=O)N2[C@@H]3CC[C@H]2C[C@@H](CN2CCOCC2)C3)n(C)n1` the figure was less than 50 nM; with `O=S(=O)(c1ccc(OC(F)F)cc1)N1C2CCC1CC(NC1CCOCC1)C2` (stereo unspecified), less than 50 nM; with `O=S(=O)(c1ccc(OC(F)F)cc1)N1[C@@H]2CC[C@H]1C[C@@H](NCC1(O)CCOCC1)C2`, less than 50 nM.
With `O=S(=O)(c1ccc(OC(F)F)cc1)N1C2CCC1CC(NCC1CCOCC1)C2` (stereo unspecified) the figure was less than 50 nM; with `CC12CC(NC3CC4CCC(C3)N4S(=O)(=O)c3ccc(OC(F)F)cc3)(CO1)C2` (stereo unspecified), less than 50 nM.

As a reminder, the IC50 is the concentration needed to halve the response being measured.
